One series deals with Tsc2−/− MEFs. The experiment in a line: Proliferation of Tsc2-/- MEFs relative to Tsc2+/+ MEFs treated with compounds (FIG. 9). The class given is cell-based. The conditions noted are these: 2 μM; FIG. 9 panel C. On the procedure: FIG. 9 is a series of panels, panels A-E showing TSC2 loss confers sensitivity to CCNT1, RNGTT, or CDK11 loss of function. Panel A is a schematic of the methods disclosed herein. […] Panel B represents data corresponding to the CDK9/CDK11 inhibitor JWD07 (5 μM). Panel C represents data corresponding to the CDK2/CDK9/CDK11 inhibitor AT7915 (2 μM). Panel D represents data corresponding to the RNGTT/IMPDH inhibitor Mizoribine (2.5 μM). Panel E represents data corresponding to the mTORC1 inhibitor Rapamycin (20 nM).
On to `O=C(NC1CCNCC1)c1n[nH]cc1NC(=O)c1c(Cl)cccc1Cl` [AT7915], for which the “proliferation of Tsc2−/− MEFs relative to Tsc2+/+ MEFs” value was “selectively reduce proliferation”.

Staying with this series, now noted: JWD07 5 μM, AT7915 2 μM, Mizoribine 2.5 μM.
With `O=C(NC1CCNCC1)c1n[nH]cc1NC(=O)c1c(Cl)cccc1Cl` [AT7915], the “cytotoxic effect on Tsc2−/− cells” value is recorded as “exert a cytotoxic effect”.

Still in this series, the particulars now being: JWD07 5 μM, AT7915 2 μM, Mizoribine 2.5 μM vs Rapamycin 20 nM.
As to `O=C(NC1CCNCC1)c1n[nH]cc1NC(=O)c1c(Cl)cccc1Cl` [AT7915], the “selective effects on cell viability in Tsc2−/− cells compared with rapamycin” value was “superior to rapamycin”.

The next series relates to luciferase-based reporter constructs in S2R+ cells. Description: Luciferase-based mutation reporter assay (sgRNA mutation efficiency). Format: cell-based, Drosophila. The conditions noted are these: sgRNAs with no mismatches targeting luciferase-based reporter in S2R+ cells; mutation rate = 1/Firefly luciferase normalized to Renilla. How it is done: The luciferase reporter vector was constructed by PCR amplifying the metallothionein promoter from pMK33 and luciferase gene from pGL3 (Table 1) and combining these with annealed oligos containing a gRNA target site (Table 1 and Table 2) and a custom made cloning vector using Golden Gate assembly.
Luciferase assays were performed by transfecting S2R+ cells with the relevant pl018 plasmid, luciferase reporter and pRL-TK (Promega) (to allow normalization of transfection efficiencies between samples) in 96 well plates using Effectene Transfection Reagent (Qiagen) according to the manufacturer's recommendations. Twenty-four hours after transfection, CuSO4 was added to the cell media at a final concentration of 140 μM and cells were incubated for a further 16 hours.
Firefly and Renilla luciferase readings were taken using the Dual-Glo Luciferase Assay System (Promega) according to manufacturer's instructions and a SpectraMax Paradigm Multi-Mode Microplate Detection Platform (Molecular Devices).
Because the rate of mutations varies widely between different sgRNAs (25-27), whether efficiency could be predicted based on the sgRNA sequence was tested. 75 additional sgRNAs were generated, each targeting luciferase-based reporter constructs with no mismatches and tested mutation efficiency for each. Using this panel of sgRNAs and associated efficiencies, the presence or absence of a correlation between GC content and mutation rate was examined. […] Next, whether a more general sequence-based approach was tested for its ability to improve efficiency prediction. The nucleotide content of all 75 sgRNAs was examined, considering each position separately and generated a probability matrix linking nucleotide content with mutation rate (FIG. 1, panel B). This was then used to generate predicted efficiency scores based on sgRNA sequence. […] Note that sgRNAs targeting close to the 3′ end of genes or with apparent viability effects were not included in this analysis. Finally, predicted scores were generated for all sgRNA target sites in the Drosophila genome and annotated.
In turn, “GACCGGATTCGCTACAACCC: sgRNA targeting a luciferase-based reporter construct, no mismatches (chemistry not given here)” showed a Mean efficiency of 0.6963. “GCACCCTGCACGAATTATTT: sgRNA targeting a luciferase-based reporter construct, no mismatches (chemistry not given here)”: the Mean efficiency turned out to be 0.2041. Compound “GCATGCCCACCTTATCGGCG: sgRNA targeting a luciferase-based reporter construct, no mismatches (chemistry not given here)” gave a Mean efficiency of 0.1169. In turn, “GCCCAGGGGGAATCGGCCGC: sgRNA targeting a luciferase-based reporter construct, no mismatches (chemistry not given here)” displayed a Mean efficiency of 0.4072. In turn, “GCCCGAAAGACACGTTTTTT: sgRNA targeting a luciferase-based reporter construct, no mismatches (chemistry not given here)” gave a Mean efficiency of 0.197.

Take “GCGAGTTATCTATCCCCAGG: sgRNA targeting a luciferase-based reporter construct, no mismatches (chemistry not given here)”: the Mean efficiency was found to be 0.4749. “GCTCTGGACCATACGGGGAT: sgRNA targeting a luciferase-based reporter construct, no mismatches (chemistry not given here)” displayed a Mean efficiency of 0.1746.

“GGAATAACCACGTCCCGCGT: sgRNA targeting a luciferase-based reporter construct, no mismatches (chemistry not given here)”: the Mean efficiency turned out to be 0.2894. “GGAGCGAGTTATCTATCCCC: sgRNA targeting a luciferase-based reporter construct, no mismatches (chemistry not given here)” registered a Mean efficiency of 0.06181.

Turning to “GGATGTTCCGGCACAACGCC: sgRNA targeting a luciferase-based reporter construct, no mismatches (chemistry not given here)”, the Mean efficiency was 0.2753. Consider “GGCACCGGGTAGCCTTGCGC: sgRNA targeting a luciferase-based reporter construct, no mismatches (chemistry not given here)”, for which the Mean efficiency was 0.3497. For “GGGCTCCAGGCTGCGCGCAA: sgRNA targeting a luciferase-based reporter construct, no mismatches (chemistry not given here)”, the Mean efficiency was found to be 0.2308.

Turning to “GGTTACCAACTCAGGACCCG: sgRNA targeting a luciferase-based reporter construct, no mismatches (chemistry not given here)”, the Mean efficiency is 0.4858. Same read-out and setting: the same measure for “GGTTCACTATTGGGGCGATC: sgRNA targeting a luciferase-based reporter construct, no mismatches (chemistry not given here)”: 0.1771.

Compound “GTCGGAACCTGAGTCGTTTT: sgRNA targeting a luciferase-based reporter construct, no mismatches (chemistry not given here)” yielded a Mean efficiency of 0.5891. The same measure, in the same setting: to “GTGCTGCGCCAACCCAAATA: sgRNA targeting a luciferase-based reporter construct, no mismatches (chemistry not given here)” belongs 0.0849; to “GTGGAATCTACTGTGGAATC: sgRNA targeting a luciferase-based reporter construct, no mismatches (chemistry not given here)”, 0.2969; to “GTGTCCAGGCTCGTCATGCC: sgRNA targeting a luciferase-based reporter construct, no mismatches (chemistry not given here)”, 0.8603. The same measure, in the same setting: the same measure for “TAAGACATACGTACGCCCAG: sgRNA targeting a luciferase-based reporter construct, no mismatches (chemistry not given here)”: 0.1814; for “TCCTATTACTGCGTGCAGCC: sgRNA targeting a luciferase-based reporter construct, no mismatches (chemistry not given here)”: 1.342; for “TCGAGGATGGGACGCTTATC: sgRNA targeting a luciferase-based reporter construct, no mismatches (chemistry not given here)”: 0.5053. As to “TCGATGACGCCCGGGTTAAC: sgRNA targeting a luciferase-based reporter construct, no mismatches (chemistry not given here)”, the Mean efficiency is recorded as 0.26. Compound “TCGCGGGCTTGCATGACGCG: sgRNA targeting a luciferase-based reporter construct, no mismatches (chemistry not given here)” came in with a Mean efficiency of 0.3295. Same read-out and setting: the same measure for “TCGTACCGCACCGGTATTTT: sgRNA targeting a luciferase-based reporter construct, no mismatches (chemistry not given here)”: 0.1565; for “TGACGCCTCAGGGTGCCGTC: sgRNA targeting a luciferase-based reporter construct, no mismatches (chemistry not given here)”: 0.6594; for “TGCGCTTACCGACGATTGGG: sgRNA targeting a luciferase-based reporter construct, no mismatches (chemistry not given here)”: 0.1109. On the same count and under the same terms, to “TGCGGTCGCGTGAGAAATAT: sgRNA targeting a luciferase-based reporter construct, no mismatches (chemistry not given here)” belongs 0.02876; to “TGTTCCCTACACGGCGCCAG: sgRNA targeting a luciferase-based reporter construct, no mismatches (chemistry not given here)”, 0.2531; to “TTCTCCGCTGTTATCCTATA: sgRNA targeting a luciferase-based reporter construct, no mismatches (chemistry not given here)”, 0.08182. “TTCTGAGTACATGTGATACC: sgRNA targeting a luciferase-based reporter construct, no mismatches (chemistry not given here)”: the Mean efficiency turned out to be 0.2974. With “TTGACATCAGCGCGCGAGGC: sgRNA targeting a luciferase-based reporter construct, no mismatches (chemistry not given here)”, the Mean efficiency stood at 0.3893.

“TTGGCCGCGACCTGTTTATC: sgRNA targeting a luciferase-based reporter construct, no mismatches (chemistry not given here)” showed a Mean efficiency of 0.9282. Regarding “TTGTTCGAAGATCTGCGCGA: sgRNA targeting a luciferase-based reporter construct, no mismatches (chemistry not given here)”, the Mean efficiency worked out at 0.2212. For “TTGTTTGCTGGTACAAACGC: sgRNA targeting a luciferase-based reporter construct, no mismatches (chemistry not given here)”, the Mean efficiency is given as 0.2993. On the same count and under the same terms, the same measure for “TTTTTTTGGGATCATATACG: sgRNA targeting a luciferase-based reporter construct, no mismatches (chemistry not given here)”: 0.1278.

The record behind these values is patent publication US20180179524A1, “COMPOSITIONS AND METHODS FOR INHIBITING CELL PROLIFERATION” (President and Fellows of Harvard College, priority 2015, published 2018).
